Consider six molecules from patent EP0415103A1, “2,3-Dihydro-1-(pyridinylamino)-indoles, a process for their preparation and their use as medicaments” (HOECHST-ROUSSEL PHARMACEUTICALS INCORPORATED, priority 1989, dated 1991).

Structures are written as SMILES.

In experiment [1] the test system is phenyl-para-quinone induced writhing. Nature of the experiment: phenyl-para-quinone writhing assay (analgesia). It is filed as in vivo, mice. The note with it: for % Inhibition of Writhing: 20 mg/kg s.c., mice. A general note: Writhing tests count abdominal constrictions after an irritant is injected.
The next experiment deals with extensor tonus. The experiment can be described thus: supramaximal electroshock (SES) assay (anticonvulsant activity). To be noted: 30 minute pretreat, normalized relative to vehicle control. In kind it is in vivo, male mouse. The method, then:
The compounds of the invention are also useful as anticonvulsants due to their anticonvulsant activity in mammals. Anticonvulsant activity is measured in the male mouse using the supramaximal electroshock (SES) assay described in Arch. Int. Pharmacodyn. 92:97-107, 1952. In this procedure, groups of male mice are used. Drugs are prepared using distilled water and, if insoluble, a surfactant is added. Control animals receive vehicle. Drugs are routinely administered interperitoneally (i.p.). The dosage volume is 10 ml/kg. A primary screen is given a 30 minute pretreat. The animals' eyes are placed across the output terminals of an A.C. shocker that delivers 206 volts rms for 300 msec. Electrode paste coats the animals' eyes at the point of contact with the terminals. […] Protection is expressed as normalized percent inhibition relative to vehicle control.
In general terms: In the maximal electroshock model the usual endpoint is tonic extension of the hind limbs.

For experiment [2], the system named is Scopolamine Induced Memory Deficit. The experiment can be described thus: Dark Avoidance Assay (reversal of scopolamine-induced memory deficit). To be noted: mice, retest after 24 hours. In kind it is in vivo. The method, then: In this assay, mice are tested for their ability to remember an unpleasant stimulus for a period of 24 hours. A mouse is placed in a chamber that contains a dark compartment; a strong incandescent light drives it to the dark compartment, where an electric shock is administered through metal plates on the floor. The animal is removed from the testing apparatus and tested again, 24 hours later, for the ability to remember the electric shock. If scopolamine, an anticholinergic that is known to cause memory impairment, is administered before an animal's initial exposure to the test chambers, the animal re-enters the dark compartment shortly after being placed in the test chamber 24 hours later. The effect of scopolamine is blocked by an active test compound, resulting in a greater interval before re-entry into the dark compartment. The results for an active compound are expressed as the percent of a group of animals in which the effect of scopolamine is blocked, as manifested by an increased interval between being placed in the test chamber and re-entering the dark compartment. The activity of some of the compounds of the instant invention in the assay are given below in Table 2.

Take `CCCN(c1ccncc1)N1CCc2ccccc21.O=C(O)C(=O)O` [2,3-Dihydro-N-propyl-N-(4-pyridinyl)-1H-indol-1-amine oxalate]: the “% Inhibition of Writhing” value in experiment [1] is 100% at 20 mg/kg. Also, in the experiment with extensor tonus (10 mg/kg i.p.), the “% Inhibition” value was -40% at 10 mg/kg i.p.
For the molecule `CC(=O)Oc1ccccc1C(=O)O` [Aspirin, reference compound], in experiment [1] (Mus musculus, sc, read-out: ED₅₀ (subcutaneous dose at which 50% of the phenyl-para-quinone induced writhing is inhibited)), the ED50 came to 32.8 mg/kg.
Consider `CCC1(c2ccccc2)C(=O)NC(=O)NC1=O` [Phenobarbital, reference compound], for which the “% Inhibition” value in the experiment on extensor tonus (8.4 mg/kg i.p.) is on record as -50% at 8.4 mg/kg.
On to `c1ccc2c(c1)CCN2Nc1ccncc1` [2,3-Dihydro-N-(4-pyridinyl)-1H-indol-1-amine], for which the “% Inhibition of Writhing” value in experiment [1] is 74% at 20 mg/kg. For the same molecule, in experiment [2] (0.3 mg/kg s.c.), the “% of Animals With Scopolamine Induced Memory Deficit Reversal” value is 53%. In addition, in the experiment with extensor tonus (15 mg/kg i.p.), the “% Inhibition” value is on record as -40% at 15 mg/kg i.p.
As to `Nc1c2c(nc3ccccc13)CCCC2` [Tacrine], in experiment [2] (0.63 mg/kg s.c), the “% of Animals With Scopolamine Induced Memory Deficit Reversal” value stood at 13%.
For `CC[C@@H]1C(=O)OC[C@@H]1Cc1cncn1C` [Pilocarpine], in experiment [2] (1.25 mg/kg s.c), the “% of Animals With Scopolamine Induced Memory Deficit Reversal” value is 19%.
